Experimental data from patent US4724236A, “5,11-dihydro-6H-pyrido(2,3-B)(1,4)benzodiazepin-6-ones substituted in the 11-position, processes for preparing them and pharmaceutical compositions containing these compounds” (Karl Thomae GmbH, priority 1985, dated 1988).

How the values were obtained:
[1] = tested on: platelet clots (mesenterial vein); assay: Effect on platelet clots in rats (electrically induced mesenterial clots, Poliwoda et al.); type: in vivo, rat
Experimental: Effect on platelet clots in the rats
Essentially the method described by Poliwoda, Lilli, Hagemann, Schyma, in Z. ges. exp. Med. 145, 252, (1968) was used.
Male SPF rats (Chbb:THOM) weighing from 70 to 90 g, given free access to food (Altromin®), and water up until the start of the test, were anaesthetised with Nembutal administered by intraperitoneal route (50 to 60 mg/kg of pentobarbital-Na). In order to avoid hypothermia they were kept on a heated test bench (37° C.).
After the abdomen had been opened up with a transverse cut the loop of small intestine was taken out and fixed and a mesenterial vein with a diameter of 300 microns was placed under a binocular operation microscope with ×40 magnification. A monopolar V4A steel electrode embedded in glass, with a diameter of 100 microns at the tip, was applied to the vein as stimulating cathode. The anode was applied to the same vessel opposite the cathode. Stimulation was effected with 150 volts of direct current for a period of 100 microsec. After stimulation, the observation area was continuously rinsed with warm (37° C.) physiological saline solution.
The formation and growth of the clot was monitored under the microscope over a period of 20 minutes. Throughout the entire observation period, the percentage narrowing of the diameter of the vessel by the clot was determined and noted initially at 10 second intervals and later every minute. The results were recorded in terms of time in a coordinate system. […]
The area under the curve of the animals treated with the test substance was compared with that of the control animals. The reduction of the size of the clot under the influence of the substance was determined as the percentage reduction in the average value of the area under the curve of the substance-treated animals over the entire observation period compared with the average value of the controls.
The significance of the reduction was calculated by Student's t test for independent random samples (CAVALLI-SFORZA: Biometrie, G. Fischer-Verlag, Stuttgart 1969, page 72).

[2] = tested on: oxotremorin-induced saliva secretion; assay: Inhibition of oxotremorin-stimulated salivation in the rat; type: in vivo; conditions: iv, 15 minutes before oxotremorin 0.083 mg/kg i.v.
Experimental: 2. inhibition of salivation stimulated by oxotremorin in the rat and
2. Inhibition of salivation in the rat
10 female albino rats (strain Crl:COBS-CD (SD) BR) having a body weight from 120 to 150 g, were used for each treatment group, and 24 hours before the start of the test the rats were deprived of food but given free access to drinking water.
In order to determine the muscarinic effect of oxotremorin on each of the symptoms being investigated in preliminary tests, a dosage-activity curve was drawn up with at least 3 dosages for each symptom.
When testing antimuscarinic substances, the oxotremorin dose used was that which had triggered the symptom to be influenced in 90 to 100% of the animals in the preliminary test 5.
Secretion of saliva: 0.083 mg/kg i.v.
Each antimuscarinic substance was administered intraveneously in uniformly graduated dosages 15 minutes before the administration of oxotremorin. Control groups were given the solvent and suspension agent in corresponding amounts instead of the test substance.
The results were expressed as the percentage inhibition of the oxotremorin effect (percentage of animals without the symptom in question). ED50 values were determined by the method of LITCHFIELD and WILCOXON (J. Pharmacol. Exp. Ther. 96, 99, 1949).

[3] = tested on: pupil size; assay: Mydriatic effect on the rat (increase in pupil size); type: in vivo; conditions: i.v.; printed as ED50 in Table I; method defines ED200 (dose doubling pupil diameter)
Experimental: 3. Mydriatic activity in the rat.
3. Mydriatic effect on the rat
The mydriasis was determined by measuring the increase in pupil size after intravenous injection of the test substance. The pupil size was measured with a microscope. The measurements were taken before and at various times (15, 45 and 75 minutes) after the injection of different doses of the substance. The results were expressed as the ED200. That is the dose which doubled the diameter of the pupil, compared with the basal value. The maximum effect was usually observed between 15 and 45 minutes after intravenous administration.

[4] = tested on: heart rate, conscious dog; assay: Heart rate-increasing activity (tachycardia) in the conscious dog; type: in vivo; conditions: Canis lupus familiaris, iv, dose for increase of 50 beats/minute, 3 to 5 dogs, read-out: Tachycardia (dog) ED50
Experimental: 1. tachycardiac effect in conscious dogs,
1. Heart rate-increasing activity in the conscious dog
The substances were injected intravenously and the heart rate was recorded using a tachygraph. After a control interval, increasing doses of the compound were administered in order to increase the heart rate. The next dose was injected when the effect of the preceding dose was no longer visible. The dosage of a substance which brought about an increase of 50 beats/minute (ED50) was determined graphically. Each substance was tested on 3 to 5 dogs.

[5] = target: T1, muscarinic receptors (heart) (Rattus norvegicus, UniProt P10980); assay: Binding to muscarinic receptors, heart (3H-NMS displacement); conditions: rat whole heart homogenate, pH 7.4, 30° C., 45 minutes, read-out: Receptor binding test IC50, Heart
T1 construct: The whole heart was cut up with scissors; All the organs were then homogenised; from tissue; host or cells: rat whole heart homogenate (male Sprague-Dawley)
T1 sequence (P10980 1-466): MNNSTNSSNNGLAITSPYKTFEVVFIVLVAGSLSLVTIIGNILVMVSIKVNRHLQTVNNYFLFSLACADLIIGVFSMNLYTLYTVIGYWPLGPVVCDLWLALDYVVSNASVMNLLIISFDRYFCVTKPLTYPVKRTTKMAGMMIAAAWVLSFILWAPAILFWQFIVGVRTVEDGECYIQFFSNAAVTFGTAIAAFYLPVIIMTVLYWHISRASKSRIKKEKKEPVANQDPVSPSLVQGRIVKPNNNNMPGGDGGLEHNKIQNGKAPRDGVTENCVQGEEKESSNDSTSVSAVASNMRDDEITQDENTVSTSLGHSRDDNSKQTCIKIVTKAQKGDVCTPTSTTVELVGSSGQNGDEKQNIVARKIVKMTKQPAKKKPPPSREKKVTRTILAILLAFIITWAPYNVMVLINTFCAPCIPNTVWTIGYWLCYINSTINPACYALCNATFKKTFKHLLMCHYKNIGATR
Experimental: (§1) B. Studies of binding to muscarinic receptors: determining the IC50 value
(§2) Male Sprague-Dawley rats weighing from 180-220 g served as organ donors. After the heart, stomach and cerebral cortex had been removed, all other procedures were carried out in ice-cold Hepes-HCl buffer (pH 7.4; 100 m molar NaCl, 10 m molar MgCl2). The whole heart was cut up with scissors. All the organs were then homogenised in a Potter apparatus.
(§3) For the binding test the homogenised organs were diluted as follows:
(§4) The homogenised organs were incubated at a specific concentration of the radioactive ligand and a series of concentrations of the non-radioactive test substances in an Eppendorf centrifugal test tube at 30° C. The period of incubation was 45 minutes. 0.3 micro-mol of ^3 H-N-methylscopolamine (^3 H-NMS) was used as the radioactive ligand. After incubation had been ended by centrifuging at 14000 g, the radioactivity in the pellet was determined. It represents the sum of specific and non-specific binding of ^3 H-NMS. The proportion of non-specific binding was defined as the radioactivity which was bound in the presence of 1 micro-mol of quinuclidinyl benzylate. Fourfold measurements were taken in each case. The IC50 values of the non-labelled test substances were determined graphically. […]

[6] = target: muscarinic receptors (cortex); assay: Binding to muscarinic receptors, cerebral cortex (3H-NMS displacement); conditions: rat cerebral cortex homogenate, pH 7.4, 30° C., 45 minutes, read-out: Receptor binding test IC50, Cortex
Experimental: as §1, §2, §3, §4

SMILES	"area under curve" units of area, average ± SD ([1]; 1 mg/kg i.v., n = 5, 20 minutes, significant reduction, t test, p < 0.02, control 1736.0 ± 124.2)	percentage reduction compared with controls (size of clot) ([1]; 1 mg/kg i.v., n = 5, from area under curve versus controls, p < 0.02)	antithrombotic activity (in words) ([1]; rats)	ED50 [2]	Mydriasis (rat) ED200 (dose doubling pupil diameter) [3]	ED (50 beats/min increase) [4]	IC50 [5]	IC50 [6]
CC(CC#CCN1CCN(C)CC1)C(=O)N1c2ccccc2C(=O)Nc2cccnc21.Cl.Cl (stereo not shown) [Substance C in form of dihydrochloride, 5,11-Dihydro-11-[1-oxo-2-methyl-6-(4-methyl-1-piperazinyl)-4-hexynyl]-6H-pyrido[2,3-b][1,4]benzodiazepin-6-one dihydrochloride]	1230.0 ± 188.0 units of area	29.2%	marked antithrombotic activity	–	–	–	–	–
O=C1Nc2cccnc2N(C(=O)CCC#CCN2CCCCC2)c2ccccc21 [Substance A, 5,11-dihydro-11-[1-oxo-6-(1-piperidinyl)-4-hexynyl]-6H-pyrido[2,3-b][1,4]benzodiazepin-6-one]	–	–	–	2.05 mg/kg	~ 3000 micro g/kg	0.044 mg/kg	120 nM	1200 nM
O=C1Nc2cccnc2N(C(=O)CCC#CCN2CCCCCC2)c2ccccc21 [Substance B, 5,11-dihydro-11-[1-oxo-6-(hexahydro-1H-azepin-1-yl)-4-hexynyl]-6H-pyrido[2,3-b][1,4]benzodiazepin-6-one]	–	–	–	1.14 mg/kg	2189 micro g/kg	0.028 mg/kg	30 nM	220 nM
